Laboratory results from US10105357B2, “Indication of antibiotic drugs for preparation of cancer inhibition pharmaceutical composition” (LAUNX BIOMEDICAL CO., LTD., priority 2014, dated 2018).
Where two headings read alike, the source gives them in different places.

Key:
Format in all cases: cell-based, human
cancer cell lines = experiment: Cell viability analysis (WST-1) on cancer cell lines; settings: drug 10 μM, 72 hours, WST-1; Table 3
[1] = system: HI650 (Lung Adenocarcinoma); experiment: Cell viability analysis, lung cancer HI650; settings: Homo sapiens, NCI-H1650, 72 h
[2] = system: A549 (Lung Adenocarcinoma); experiment: Cell viability analysis, lung cancer A549; settings: Homo sapiens, A549, 72 h
[3] = system: AGS (Gastric Adenocarcinoma); experiment: Cell viability analysis, gastric cancer AGS; settings: Homo sapiens, 72 h
[4] = system: MKN-45 (Gastric Adenocarcinoma); experiment: Cell viability analysis, gastric cancer MKN-45; settings: Homo sapiens, MKN-45, 72 h
[5] = system: HepG2 (Hepatocellular Carcinoma); experiment: Cell viability analysis, hepatic cancer HepG2; settings: Homo sapiens, HepG2, 72 h
[6] = system: LoVo (Colorectal Adenocarcinoma); experiment: Cell viability analysis, colon cancer LoVo; settings: Homo sapiens, LoVo, 72 h, read-out: cell viability (survival rate), LoVo, drug 10 μM, 72 hours, WST-1, OD450 nm
[7] = system: A375 (Amelanotic Melanoma); experiment: Cell viability analysis, skin cancer A375; settings: Homo sapiens, A-375, 72 h
[8] = system: HeLa (Cervix Adenocarcinoma); experiment: Cell viability analysis, cervical cancer HeLa; settings: Homo sapiens, HeLa, 72 h
[9] = system: PC3 (p53−) (Prostate Adenocarcinoma); experiment: Cell viability analysis, prostate cancer PC3; settings: Homo sapiens, 72 h
[10] = system: TSGH-8301 (Urinary Bladder Carcinoma); experiment: Cell viability analysis, bladder cancer TSGH-8301; settings: Homo sapiens, 72 h
[11] = system: MCF7 (Mammary Gland, Adenocarcinoma); experiment: Cell viability analysis, breast cancer MCF7; settings: Homo sapiens, MCF7, 72 h
[12] = system: HL-60 (Acute Promyelocytic Leukemia); experiment: Cell viability analysis, leukemia HL-60; settings: Homo sapiens, HL-60, 72 h
[13] = drug 10 μM, 72 hours, WST-1, OD450 nm, read-out: cell viability (survival rate), H1650
[14] = drug 10 μM, 72 hours, WST-1, OD450 nm, read-out: cell viability (survival rate), A549
[15] = drug 10 μM, 72 hours, WST-1, OD450 nm, read-out: cell viability (survival rate), AGS
[16] = drug 10 μM, 72 hours, WST-1, OD450 nm, read-out: cell viability (survival rate), MKN-45
[17] = drug 10 μM, 72 hours, WST-1, OD450 nm, read-out: cell viability (survival rate), HepG2
[18] = drug 10 μM, 72 hours, WST-1, OD450 nm, read-out: cell viability (survival rate), A375
[19] = drug 10 μM, 72 hours, WST-1, OD450 nm, read-out: cell viability (survival rate), HeLa
[20] = drug 10 μM, 72 hours, WST-1, OD450 nm, read-out: cell viability (survival rate), PC3
[21] = drug 10 μM, 72 hours, WST-1, OD450 nm, read-out: cell viability (survival rate), TSGH
[22] = drug 10 μM, 72 hours, WST-1, OD450 nm, read-out: cell viability (survival rate), MCF7
[23] = drug 10 μM, 72 hours, WST-1, OD450 nm, read-out: cell viability (survival rate), HL-60
[24] = read-out: cell viability (survival rate), H1650, drug 10 μM, 72 hours, WST-1, OD450 nm
[25] = read-out: cell viability (survival rate), A549, drug 10 μM, 72 hours, WST-1, OD450 nm
[26] = read-out: cell viability (survival rate), AGS, drug 10 μM, 72 hours, WST-1, OD450 nm
[27] = read-out: cell viability (survival rate), MKN-45, drug 10 μM, 72 hours, WST-1, OD450 nm
[28] = read-out: cell viability (survival rate), HepG2, drug 10 μM, 72 hours, WST-1, OD450 nm
[29] = read-out: cell viability (survival rate), A375, drug 10 μM, 72 hours, WST-1, OD450 nm
[30] = read-out: cell viability (survival rate), HeLa, drug 10 μM, 72 hours, WST-1, OD450 nm
[31] = read-out: cell viability (survival rate), PC3, drug 10 μM, 72 hours, WST-1, OD450 nm
[32] = read-out: cell viability (survival rate), TSGH, drug 10 μM, 72 hours, WST-1, OD450 nm
[33] = read-out: cell viability (survival rate), MCF7, drug 10 μM, 72 hours, WST-1, OD450 nm
[34] = read-out: cell viability (survival rate), HL-60, drug 10 μM, 72 hours, WST-1, OD450 nm

Row | Structure (SMILES) | inhibition effect on different cancer cell lines (cancer cell lines) | viability at 10 µM [1, 13] [%] | viability at 10 µM [2, 14] [%] | viability at 10 µM [3, 15] [%] | viability at 10 µM [4, 16] [%] | viability at 10 µM [5, 17] [%] | viability at 10 µM [6] [%] | viability at 10 µM [7, 18] [%] | viability at 10 µM [8, 19] [%] | viability at 10 µM [9, 20] [%] | viability at 10 µM [10, 21] [%] | viability at 10 µM [11, 22] [%] | viability at 10 µM [12, 23] [%] | viability at 10 µM [1, 24] [%] | viability at 10 µM [2, 25] [%] | viability at 10 µM [3, 26] [%] | viability at 10 µM [4, 27] [%] | viability at 10 µM [5, 28] [%] | viability at 10 µM [7, 29] [%] | viability at 10 µM [8, 30] [%] | further results
1 | CC(C)(C)c1nc(-c2cccc(NS(=O)(=O)c3c(F)cccc3F)c2F)c(-c2ccnc(N)n2)s1 [Dabrafenib (GSK2118436), Dabrafenib] | significant inhibition effect | 73.6 | 134 | 90.1 | 98.7 | 91.3 | 70.5 | 42.1 | 78.5 | 100 | 90.5 | 94.1 | 72.9 |  |  |  |  |  |  |  | 
2 | C[N+]1(C)[C@@H]2C[C@@H](OC(=O)C(O)(c3cccs3)c3cccs3)C[C@H]1[C@@H]1O[C@@H]12 [Tiotropium Bromide hydrate] | significant inhibition effect |  |  |  |  |  | 88.7 |  |  |  |  |  |  | 40.9 | 62 | 73.1 | 86.1 | 90.9 | 86.3 | 124 | viability at 10 µM [9, 31]: 83.8%; viability at 10 µM [10, 32]: 54.7%; viability at 10 µM [11, 33]: 80%; viability at 10 µM [12, 34]: 87.8%
3 | NCCS(=O)(=O)O [Taurine] | significant inhibition effect |  |  |  |  |  | 98.5 |  |  |  |  |  |  | 46.1 | 84 | 64.1 | 61.6 | 93.1 | 77.6 | 84.9 | viability at 10 µM [9, 31]: 61.1%; viability at 10 µM [10, 32]: 110%; viability at 10 µM [11, 33]: 91.5%; viability at 10 µM [12, 34]: 116%
4 | CC(=O)O[C@]1(C(C)=O)CC[C@H]2[C@@H]3C[C@H](C)C4=CC(=O)CC[C@]4(C)[C@H]3CC[C@@]21C [Medroxyprogesterone acetate] | significant inhibition effect | 38.6 | 60.5 | 72.3 | 66.9 | 78.6 | 65.9 | 81 | 70.4 | 82 | 79.4 | 69.3 | 51.7 |  |  |  |  |  |  |  | 
5 | COc1cnc(NS(=O)(=O)c2ccc(N)cc2)nc1 [Sulfameter (Bayrena), Sulfameter] | significant inhibition effect | 84.8 | 59 | 67.4 | 58.6 | 95.5 | 89.9 | 89.2 | 78.4 | 90.2 | 78.6 | 51.7 | 110 |  |  |  |  |  |  |  | 
6 | Nc1ccc(S(=O)(=O)Nc2ncccn2)cc1 [Sulfadiazine] | significant inhibition effect |  |  |  |  |  | 93.6 |  |  |  |  |  |  | 69.2 | 38.1 | 91.8 | 44.4 | 114 | 79.5 | 43.7 | viability at 10 µM [9, 31]: 70.1%; viability at 10 µM [10, 32]: 80.4%; viability at 10 µM [11, 33]: 37.2%; viability at 10 µM [12, 34]: 106%
7 | Nc1[nH]c(=O)ncc1F [Flucytosine (Ancobon), Flucytosine] | significant inhibition effect |  |  |  |  |  | 108 |  |  |  |  |  |  | 92.1 | 91.4 | 70.7 | 72.9 | 93.2 | 102 | 80.9 | viability at 10 µM [9, 31]: 108%; viability at 10 µM [10, 32]: 93.9%; viability at 10 µM [11, 33]: 75.3%; viability at 10 µM [12, 34]: 102%
8 | Cc1onc(-c2c(Cl)cccc2Cl)c1C(=O)N[C@@H]1C(=O)N2[C@@H]1SC(C)(C)[C@@H]2C(=O)O [Dicloxacillin Sodium] | significant inhibition effect |  |  |  |  |  | 92.4 |  |  |  |  |  |  | 68.4 | 61.8 | 147 | 66.4 | 102 | 79 | 60.1 | viability at 10 µM [9, 31]: 71.1%; viability at 10 µM [10, 32]: 84.3%; viability at 10 µM [11, 33]: 45.3%; viability at 10 µM [12, 34]: 72.7%
9 | CO[C@H]1/C=C/O[C@@]2(C)Oc3c(C)c(O)c4c(c3C2=O)C2=NC3(CCN(CC(C)C)CC3)NC2=C(NC(=O)/C(C)=C\C=C\[C@H](C)[C@H](O)[C@@H](C)[C@@H](O)[C@@H](C)[C@H](OC(C)=O)[C@@H]1C)C4=O [Rifabutin (Mycobutin), Rifabutin] | significant inhibition effect |  |  |  |  |  | 104 |  |  |  |  |  |  | 88.2 | 53.1 | 115 | 62.4 | 148 | 84 | 52.8 | viability at 10 µM [9, 31]: 72.6%; viability at 10 µM [10, 32]: 82.5%; viability at 10 µM [11, 33]: 48.8%; viability at 10 µM [12, 34]: 100%
10 | Cc1c(OCC(F)(F)F)ccnc1C[S+]([O-])c1nc2ccccc2[nH]1 (stereo not drawn) [Lansoprazole] | significant inhibition effect | 45.5 | 84.5 | 71.5 | 74.5 | 72.3 | 96.1 | 60.6 | 53.6 | 94.2 | 109 | 141 | 78.6 |  |  |  |  |  |  |  | 
11 | Cc1ccnc2c1NC(=O)c1cccnc1N2C1CC1 [Nevirapine (Viramune), Nevirapine] | significant inhibition effect | 89.7 | 45.7 | 115 | 68.3 | 85.5 | 85.7 | 66.8 | 58.9 | 84.1 | 103 | 38.5 | 98.7 |  |  |  |  |  |  |  | 
12 | C[C@@H]1CN(c2c(F)c(F)c3c(=O)c(C(=O)O)cn(C4CC4)c3c2F)C[C@H](C)N1 [Orbifloxacin] | significant inhibition effect | 63.7 | 44.2 | 84.5 | 44.1 | 84.2 | 75.4 | 55.6 | 66.8 | 51.1 | 44.3 | 33.3 | 92.3 |  |  |  |  |  |  |  | 
